Assay results from PubChem BioAssay AID179 (DTP/NCI, 2004).
Activity calls are given as the source filed them.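 The calls were made as follows: active = compounds giving half or more protection of infected cells from virus-caused growth loss, again on retest; inactive = the rest.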

Tested on: CEM cells HIV-1 protection, formazan growth assay
Assay: NCI AIDS Antiviral Assay
Details: for IC50: measured here: growth of uninfected CEM cells
Method in brief: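 Steps: treat uninfected and HIV-1-infected human CEM cells at five drug levels; quantify growth by soluble formazan; retest any compound reaching 50% protection; classify actives from the retest.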

Row | SMILES | EC50 | IC50 | outcome
1 | CC1(C(=O)O)CCC2(C)CCC3(C)C(=CC(=O)C4C5(C)CCC(OC6OC(C(=O)O)C(O)C(O)C6OC6OC(C(=O)O)C(O)C(O)C6O)C(C)(C)C5CCC43C)C2C1 (stereo unspecified) | > 302 µM | > 302 µM | 
2 | Cc1ccc(-c2n[nH]c(Cc3nc(-c4ccc(C)cc4)n[nH]3)n2)cc1 | > 200 µM | > 200 µM | 
3 | O=C(OCc1ccccc1)N(CCCCN(CCCNCc1ccccc1)C(=O)OCc1ccccc1)CCCNCc1ccccc1 | > 2 µM | 0.871 µM | 
4 | COc1nc2[nH]c(C)cc(=O)c2c2ccccc12 | > 200 µM | > 200 µM | 
5 | Cc1ccc(NC(=O)C(=O)Cc2nc3ccccc3o2)c(C)c1 | > 12.3 µM | > 12.3 µM | 
6 | O=C1CSC(c2ccc([N+](=O)[O-])cc2)N1c1ccc(-n2c(-c3ccccc3)nc3ccccc3c2=O)cc1 (stereo unspecified) | > 200 µM | 129 µM | 
7 | O=c1c2ccccc2nc(N/N=C/c2ccc([N+](=O)[O-])cc2)n1-c1ccccc1 | > 50.1 µM | > 50.1 µM | 
8 | CC1=C(C)C(=O)C2=C(OCCCO2)C1=O | > 1200 µM | 3.39 µM | 
9 | O=C(c1ccccc1)c1nnn(Cc2cccc(Cl)c2)c1C(=O)c1ccccc1 | > 12.9 µM | > 12.9 µM | 
10 | CCCCc1ccc(-n2sc3ncccc3c2=O)cc1 | 1.74 µM | 8.32 µM | 
11 | O=C1c2cccc3cc([N+](=O)[O-])cc(c23)C(=O)N1Cc1cccnc1 |  |  | inactive
12 | COc1cccc(-c2nc(-c3cnccn3)n(C/C=C/c3ccccc3)n2)c1 | 178 µM | > 200 µM | 
13 | CN(C)CC/C(=N\Nc1ccccc1)c1ccccc1 |  |  | inactive
14 | Cc1occc1C(=S)Nc1ccc(Cl)c(/C=N/OC(C)C)c1 | 0.0263 µM | 18.2 µM | 
15 | Clc1ccc(OCc2nnc(CCCCCCCCc3nnc(COc4ccc(Cl)cc4)o3)o2)cc1 | > 200 µM | 89.1 µM | 
16 | O=C(c1ccccc1)n1[nH]c(=O)n(-c2ccc(Cl)cc2)c1=O | > 200 µM | > 200 µM | 
17 | N=c1oc2ccc(Cl)cc2cc1C(=O)NCc1ccccc1 | > 200 µM |  | 
18 | C/C(=N\NC(=S)N1CCN(C2CCCCCC2)CC1)c1ccccn1 | > 138 µM | 0.955 µM | 
19 | O=C(c1cccc([N+](=O)[O-])c1)c1c(O)c2ccccc2oc1=O | > 200 µM | 95.5 µM | 
20 | CN(N)c1cnn(-c2ccccc2)c(=O)c1Cl | > 200 µM | > 200 µM | 
21 | COc1ccc(P2(=S)Oc3ccccc3-c3ccccc3O2)cc1 | > 0.2 µM | 0.0631 µM | 
22 | CCCCCCCCCCCCCCCCCCCCOC1OC(COC(C)=O)C(OC(C)=O)C(OC(C)=O)C1OC(C)=O (stereo unspecified) | > 35.5 µM | > 35.5 µM | 
23 | CC(=O)Oc1cc(C)c2c(c1)CCC1C3CCC(OC(C)=O)C3(C)CC(O[N+](=O)[O-])C21O (stereo unspecified) | > 200 µM | > 200 µM | 

Row | SMILES | EC50 | IC50 | outcome
24 | O=c1c(SCc2ccc(Cl)cc2Cl)c(SCc2ccc(Cl)cc2Cl)cnn1-c1ccccc1 | > 46.8 µM | > 46.8 µM | 
25 | S=C1NC2=C(CSC/C2=C\c2cccc(Br)c2)C(c2cccc(Br)c2)N1 (stereo unspecified) | > 200 µM | 19.5 µM | 
26 | CC(=O)/C(N=Nc1ccc(-n2c(C)nc3ccccc3c2=O)cc1)=C(/C)O | > 200 µM | > 200 µM | 
27 | CCN(CC)CCN(C(=O)c1ccc(F)cc1)c1ccccc1N | > 200 µM | > 200 µM | 
28 | COC12OCCN(C)C1=CC(=O)C1(C)N=NCC12 (stereo unspecified) |  |  | inactive
29 | O=C(O)c1ccc(C2COc3ccc(Cl)cc3C2)cc1 (stereo unspecified) | > 174 µM | 105 µM | 
30 | CCCCCCCCCCCCCC1=NCC(C)(C)N1 | > 93.3 µM | 20.4 µM | 
31 | C(/C=C/Nc1ccc(-c2ccccc2)cc1)=Nc1ccc(-c2ccccc2)cc1 | > 200 µM | > 200 µM | 
32 | C[C@]12CC[C@H](O)CC1=CC[C@@H]1C2CC[C@@]2(C)C1CC[C@@H]2c1nc(-c2ccccc2)cs1 (stereo partly specified) | > 15.5 µM | > 15.5 µM | 
33 | COC(=O)c1ccccc1C1CN=NC12Cc1ccc(C)c(C)c1C2=O (stereo unspecified) | > 200 µM | 37.2 µM | 
34 | C#CC1=CC(=O)C(OC)=CC1=O | > 200 µM | 31.6 µM | 
35 | CCOC1(OCC)CS(=O)(=O)C1c1ccccc1 (stereo unspecified) | > 661 µM | > 661 µM | 
36 | CN/N=C(\C(=O)Nc1ccc(C)c(C)c1)C(C(=O)OC)c1nc2ccc([N+](=O)[O-])cc2[nH]c1=O (stereo unspecified) | > 77.6 µM | > 77.6 µM | 
37 | COc1ccc2nc3ccccc3c(NCCCN(C)CCCl)c2c1 | > 200 µM | 0.501 µM | 
38 | CN(C)c1ccc(C=Nc2ccc(/C=C3\C=Cc4ccccc43)cc2)cc1 | > 20.4 µM | > 20.4 µM | 
39 | COC(=O)C(Cc1nc2ccccc2[nH]c1=O)C(=O)C(=O)Nc1ccc(F)cc1 (stereo unspecified) | > 91.2 µM | 16.2 µM | 
40 | Cc1ccc(CCNC(=S)SCC(NC(=O)CCC(N)C(=O)O)C(=O)NCC(=O)O)cc1 (stereo unspecified) | > 102 µM | 8.71 µM | 
41 | NNc1nnc(-c2ccccc2)nc1Cc1ccccc1 | > 25.7 µM | 13.8 µM | 
42 | Cc1cc(C)c2c(c1)CC2NC(=O)Cc1ccccc1 (stereo unspecified) | > 26.9 µM | > 26.9 µM | 
43 | O=C(/C=C/c1ccccc1)c1ccc(NCc2nc3ccccc3[nH]2)cc1 | > 20.4 µM | 11 µM | 
44 | CCN1CCC(O)(c2ccc(Cl)cc2)C(C(=O)c2ccc(Cl)cc2)C1 (stereo unspecified) |  |  | inactive
45 | N#Cc1c(/N=C/c2ccccc2Cl)sc2c1CCC2 | > 200 µM | > 200 µM | 
46 | O=Cc1cc([N+](=O)[O-])no1 |  |  | inactive

Row | SMILES | EC50 | IC50 | outcome
47 | O=C1CS/C(=N/N=C/c2nc3ccccc3c(=O)n2-c2ccc(Cl)cc2)N1c1ccccc1 | > 38 µM | > 38 µM | 
48 | COc1cc(C2c3cc4c(cc3CC3COC(=O)N32)OCO4)cc(OC)c1OC (stereo unspecified) | > 25.1 µM | 1.38 µM | 
49 | CN1NC(c2ccccc2)=C(C#N)C(=O)CC1c1ccccc1 (stereo unspecified) | > 200 µM | 93.3 µM | 
50 | CCOC(=O)C1Oc2ccc([N+](=O)[O-])c3c2C1(O)CCC3 (stereo unspecified) |  |  | inactive
51 | CCOC(=O)C1(c2ccccc2)CCN(CC(=O)c2ccccc2)CC1 | > 102 µM | 56.2 µM | 
52 | COc1nc2n[nH]nc2c(=O)[nH]1 |  |  | inactive
53 | COC(=O)CC1C=CC(C)(OC)OO1 (stereo unspecified) | > 200 µM | 93.3 µM | 
54 | COc1ccc2c(c1)CCN1CCc3ccccc3CC21 (stereo unspecified) | > 200 µM | 53.7 µM | 
55 | COC(=O)C1(C)CC(c2ccccc2)=NC1c1ccccc1 (stereo unspecified) | > 123 µM | > 123 µM | 
56 | COC(=O)C1(Cc2cccc(C)c2)Cc2c(C)cccc2C1=O (stereo unspecified) | > 200 µM | 32.4 µM | 
57 | O=C1O/C(=C(\Br)c2ccc([N+](=O)[O-])cc2)c2ccccc21 | > 200 µM | 16.6 µM | 
58 | CCOc1ccc(C(CN2CCOCC2)C(C)=O)cc1OC (stereo unspecified) | > 724 µM | 1.95 µM | 
59 | COC1(CCO)CC=CCC1(CCO)OC (stereo unspecified) | > 200 µM | > 200 µM | 
60 | CCOC(=O)c1c(N2CCCC2)nsc1Nc1ccc(F)cc1 | > 200 µM | 23.4 µM | 
61 | O=c1[nH]c(Br)nc2n[nH]nc12 | > 200 µM | 4.9 µM | 
62 | COc1ccc(C(=O)[O][Sn]([c]2ccccc2)([c]2ccccc2)[c]2ccccc2)c(OC)c1OC | > 2 µM | 0.11 µM | 
63 | O=[N+]([O-])/C(C(Cl)=C(Cl)Cl)=C1\NCCO1 | > 200 µM | 115 µM | 
64 | O=c1c2ccccc2sc2ccccc12 | > 200 µM | > 200 µM | 
65 | O/N=C1\CCCC\C1=C/c1ccccc1 |  |  | inactive
66 | COc1c(N2CCCCC2)c2c(=O)c3ccccc3oc2c2c3ccccc3n(C)c12 | 170 µM | 195 µM | 
67 | N#CC1=C(Nc2ccccc2)SC=C(c2ccccc2)NC1=NCc1ccccc1 | > 200 µM | 97.7 µM | 
68 | COc1ccc(/C=C2\CCC(C)C3=C(c4ccc(OC)c(OC)c4)C(C#N)=C(N)OC32)cc1OC (stereo unspecified) | > 200 µM | 8.32 µM | 
69 | CC(=O)N(C(C)=O)n1c(Cc2ccc(C)cc2)nn(C(C)=O)c1=O | > 200 µM | > 200 µM | 

Row | SMILES | EC50 | IC50 | outcome
70 | CC(C)(C)OC(=O)N1N=CCC1c1ccccc1 (stereo unspecified) | > 200 µM | > 200 µM | 
71 | COc1cc2c(cc1OC)C(=O)c1nccc3ccc(OC)c(c13)O2 | > 53.7 µM | 43.7 µM | 
72 | COc1ccc(C(CC(=O)c2ccc3c(c2)OCO3)C(=O)O)cc1OC (stereo unspecified) |  |  | inactive
73 | O=c1c(-c2cccc3ccccc23)c(-c2cccc3ccccc23)c1=O |  |  | inactive
74 | CC1=C(c2nc3ccccc3s2)C(=O)OC1(C)C | > 182 µM | 123 µM | 
75 | CCCCN(CCO)Cc1cc(Nc2c3ccccc3nc3ccccc23)ccc1O | > 63.1 µM | 20.4 µM | 
76 | O=C(O)c1ccc(CS(=O)(=O)c2ccccc2C(=O)O)cc1 | > 776 µM | > 776 µM | 
77 | C[N+](C)(C)CCS(=O)(=O)[O-] | > 200 µM | > 200 µM | 
78 | O=C(CC(=O)C(=O)CC(=O)OCc1ccccc1)OCc1ccccc1 | > 105 µM | 89.1 µM | 
79 | O=C(N/N=C\c1ccccn1)c1ccncc1 | > 200 µM | 91.2 µM | 
80 | Nc1ccc(N=Nc2ccc(CCc3ccc(N=Nc4ccc(N)c5cc(S(=O)(=O)O)ccc45)cc3S(=O)(=O)O)c(S(=O)(=O)O)c2)c2ccc(S(=O)(=O)O)cc12 | > 145 µM | 53.7 µM | 
81 | Clc1ccc(CN2COc3c(ccc4ccccc34)C2)cc1Cl | > 200 µM | 31.6 µM | 
82 | CN(C)C=C1C(Cl)=C(C=O)CC(C=O)=C1Cl |  |  | inactive
83 | COc1cc2c(cc1OC)C13CCN4CC5=CCOC6CC(=O)N2C1C6C5C4C3 (stereo unspecified) (tested in a mixture with another compound) | > 209 µM |  | 
84 | O=C(O)c1cc(O)c(Br)c(O)c1N=Nc1ccc(/C=C/c2ccc(N=Nc3c(C(=O)O)cc(O)c(Br)c3O)cc2S(=O)(=O)O)c(S(=O)(=O)O)c1 | 166 µM | > 200 µM | 
85 | O=C1CC[C@@H](S(=O)(=O)c2ccccc2)[C@@H](/C=C/c2ccccc2)O1 |  |  | inactive
86 | CNC(=O)N(CCCCC(NC(C)=O)C(=O)NCc1ccccc1)Cc1ccccc1 (stereo unspecified) | > 589 µM | > 589 µM | 
87 | CCC[C@@H]1C(=O)N=C(N)N1C(=O)OCc1ccccc1 | > 200 µM | > 200 µM | 
88 | CC(=O)c1ccc2c3ccccc3c3cccc4sc1c2c43 | > 22.4 µM | > 22.4 µM | 
89 | OCC1=CCC2c3[nH]c4ccccc4c3CCN2C1 (stereo unspecified) | > 372 µM | > 372 µM | 
90 | CC(=S)N/C=C(/c1ccc(Cl)cc1Cl)S(=O)(=O)Cc1ccc(Cl)cc1Cl | > 100 µM | > 100 µM | 
